Reference: PubChem BioAssay AID248 (DTP/NCI, 2004)
Inconclusive results and toxic doses are left out. Rule as the data show it: active = T/C of 150% or more; inactive = T/C below 125%.

Tested on: L1210 leukemia ip in BDF1 mice, survival T/C
Assay: NCI In Vivo Anticancer Drug Screen. Data for tumor model L1210 Leukemia (intraperitoneal) in B6D2F1 (BDF1) mice
Settings: endpoint: mean survival time, higher = longer survival
Outline: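 Value reflects the ratio of survival in compound-treated mice to survival in vehicle-treated controls, with both groups carrying the same transplanted tumor.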

[1] = dose: 100.0 mg/kg/injection, schedule: Q01DX001 (ip), vehicle: saline
[2] = dose: 200.0 mg/kg/injection, schedule: Q01DX001 (ip), vehicle: saline
[3] = dose: 400.0 mg/kg/injection, schedule: Q01DX001 (ip), vehicle: saline
[4] = dose: 100.0 mg/kg/injection, schedule: Q01DX009 (ip), vehicle: saline with Tween-80
[5] = dose: 200.0 mg/kg/injection, schedule: Q01DX009 (ip), vehicle: saline with Tween-80
[6] = dose: 25.0 mg/kg/injection, schedule: Q04DX003 (ip), vehicle: saline
[7] = dose: 50.0 mg/kg/injection, schedule: Q04DX003 (ip), vehicle: saline
[8] = dose: 50.0 mg/kg/injection, schedule: Q01DX001 (ip), vehicle: Klucel (hydroxypropylcellulose) (HPC)
[9] = dose: 100.0 mg/kg/injection, schedule: Q01DX001 (ip), vehicle: Klucel (hydroxypropylcellulose) (HPC)
[10] = dose: 25.0 mg/kg/injection, schedule: Q01DX009 (ip), vehicle: saline
[11] = dose: 50.0 mg/kg/injection, schedule: Q01DX009 (ip), vehicle: saline
[12] = dose: 100.0 mg/kg/injection, schedule: Q04DX003 (ip), vehicle: saline
[13] = dose: 12.5 mg/kg/injection, schedule: Q01DX009 (ip), vehicle: Klucel (hydroxypropylcellulose) (HPC)
[14] = dose: 25.0 mg/kg/injection, schedule: Q01DX009 (ip), vehicle: Klucel (hydroxypropylcellulose) (HPC)
[15] = dose: 50.0 mg/kg/injection, schedule: Q01DX009 (ip), vehicle: Klucel (hydroxypropylcellulose) (HPC)
[16] = dose: 100.0 mg/kg/injection, schedule: Q04DX002 (ip), vehicle: saline
[17] = dose: 200.0 mg/kg/injection, schedule: Q04DX002 (ip), vehicle: saline
[18] = dose: 400.0 mg/kg/injection, schedule: Q04DX002 (ip), vehicle: saline
[19] = dose: 100.0 mg/kg/injection, schedule: Q01DX009 (ip), vehicle: Klucel (hydroxypropylcellulose) (HPC)
[20] = dose: 200.0 mg/kg/injection, schedule: Q01DX009 (ip), vehicle: Klucel (hydroxypropylcellulose) (HPC)
[21] = dose: 100.0 mg/kg/injection, schedule: Q01DX009 (ip), vehicle: saline
[22] = dose: 200.0 mg/kg/injection, schedule: Q01DX009 (ip), vehicle: saline
[23] = dose: 400.0 mg/kg/injection, schedule: Q01DX009 (ip), vehicle: saline

Measured: T/C

O=C(c1ccccc1)c1cc(Cl)ccc1O
inactive: dose: 75.0 mg/kg/injection, schedule: Q01DX009 (ip), vehicle: Klucel (hydroxypropylcellulose) (HPC) 102 % of control | dose: 100.0 mg/kg/injection, schedule: Q04DX002 (ip), vehicle: Klucel (hydroxypropylcellulose) (HPC) 100 % of control | dose: 150.0 mg/kg/injection, schedule: Q01DX009 (ip), vehicle: Klucel (hydroxypropylcellulose) (HPC) 98 % of control | dose: 200.0 mg/kg/injection, schedule: Q04DX002 (ip), vehicle: Klucel (hydroxypropylcellulose) (HPC) 93 % of control | dose: 300.0 mg/kg/injection, schedule: Q01DX009 (ip), vehicle: Klucel (hydroxypropylcellulose) (HPC) 94 % of control | dose: 400.0 mg/kg/injection, schedule: Q04DX002 (ip), vehicle: Klucel (hydroxypropylcellulose) (HPC) 96 % of control

COc1ccccc1NC(=O)C(C(C)=O)C(c1cccc([N+](=O)[O-])c1)C(C(C)=O)C(=O)Nc1ccccc1OC (stereo not drawn)
inactive: [1] 96 % of control | [2] 96 % of control | [3] 89 % of control

S=c1ncn(-c2ccccc2)[nH]1
inactive: dose: 50.0 mg/kg/injection, schedule: Q01DX009 (ip), vehicle: saline with Tween-80 103 % of control | [4] 95 % of control | [5] 95 % of control

CN=C(NC)c1ccc(NC(=O)/C=C/C(=O)Nc2ccc(C(=NC)NC)cc2)cc1
inactive: dose: 12.5 mg/kg/injection, schedule: Q01DX Z (ip), vehicle: carboxymethylcellulose (CMC) 97 % of control | dose: 25.0 mg/kg/injection, schedule: Q01DX Z (ip), vehicle: carboxymethylcellulose (CMC) 91 % of control | dose: 50.0 mg/kg/injection, schedule: Q01DX Z (ip), vehicle: carboxymethylcellulose (CMC) 99 % of control

CC1C(C)(C)P(=O)(c2ccccc2)C1(C)C (stereo not drawn)
inactive: dose: 12.5 mg/kg/injection, schedule: Q04DX003 (ip), vehicle: saline 96 % of control | [6] 96 % of control | [7] 105 % of control

CCOC(=O)c1c[nH]c2ccc([N+](=O)[O-])cc2c1=O
inactive: dose: 25.0 mg/kg/injection, schedule: Q01DX001 (ip), vehicle: Klucel (hydroxypropylcellulose) (HPC) 97 % of control | [8] 97 % of control | [9] 97 % of control

COC(=O)C(C)CN1CCCC1 (stereo not drawn)
inactive: dose: 12.5 mg/kg/injection, schedule: Q01DX009 (ip), vehicle: saline 97 % of control | [10] 88 % of control | [6] 98 % of control | [11] 100 % of control | [7] 107 % of control | [12] 104 % of control

O=P(O)(O)c1ccccc1
inactive: dose: 50.0 mg/kg/injection, schedule: Q01DX001 (ip), vehicle: carboxymethylcellulose (CMC) 96 % of control | dose: 100.0 mg/kg/injection, schedule: Q01DX001 (ip), vehicle: carboxymethylcellulose (CMC) 107 % of control | dose: 200.0 mg/kg/injection, schedule: Q01DX001 (ip), vehicle: carboxymethylcellulose (CMC) 98 % of control

CCSCCC(=O)O
inactive: [8] 97 % of control | [9] 92 % of control | dose: 200.0 mg/kg/injection, schedule: Q01DX001 (ip), vehicle: Klucel (hydroxypropylcellulose) (HPC) 97 % of control

CC(=O)OCC(OC(C)=O)C(OC(C)=O)C(C#N)OC(C)=O (stereo not drawn)
inactive: [13] 95 % of control | dose: 12.5 mg/kg/injection, schedule: Q04DX003 (ip), vehicle: Klucel (hydroxypropylcellulose) (HPC) 102 % of control | [14] 95 % of control | dose: 25.0 mg/kg/injection, schedule: Q04DX003 (ip), vehicle: Klucel (hydroxypropylcellulose) (HPC) 96 % of control | [15] 102 % of control | dose: 50.0 mg/kg/injection, schedule: Q04DX003 (ip), vehicle: Klucel (hydroxypropylcellulose) (HPC) 102 % of control | dose: 100.0 mg/kg/injection, schedule: Q04DX003 (ip), vehicle: saline with Tween-80 102 % of control | dose: 200.0 mg/kg/injection, schedule: Q04DX003 (ip), vehicle: saline with Tween-80 102 % of control

Cc1c[nH]c(=O)[nH]1
inactive: [16] 109 % of control | [17] 106 % of control | [18] 117 % of control

O=C(O)c1cnc(C(=O)O)cn1
inactive: [15] 98 % of control | [19] 87 % of control | [20] 91 % of control

CCOC(=O)c1ccc(N=NN(C)C2CCCCC2)cc1
inactive: dose: 100.0 mg/kg/injection, schedule: Q01DX001 (sc), vehicle: olive oil, sesame oil, peanut oil 102 % of control | dose: 100.0 mg/kg/injection, schedule: Q01DX009 (sc), vehicle: olive oil, sesame oil, peanut oil 104 % of control | dose: 100.0 mg/kg/injection, schedule: Q04DX003 (sc), vehicle: olive oil, sesame oil, peanut oil 102 % of control | dose: 200.0 mg/kg/injection, schedule: Q01DX001 (sc), vehicle: olive oil, sesame oil, peanut oil 102 % of control | dose: 200.0 mg/kg/injection, schedule: Q01DX009 (sc), vehicle: olive oil, sesame oil, peanut oil 116 % of control | dose: 200.0 mg/kg/injection, schedule: Q04DX003 (sc), vehicle: olive oil, sesame oil, peanut oil 103 % of control | dose: 400.0 mg/kg/injection, schedule: Q01DX001 (sc), vehicle: olive oil, sesame oil, peanut oil 98 % of control | dose: 400.0 mg/kg/injection, schedule: Q01DX009 (sc), vehicle: olive oil, sesame oil, peanut oil 104 % of control | dose: 400.0 mg/kg/injection, schedule: Q04DX003 (sc), vehicle: olive oil, sesame oil, peanut oil 100 % of control

COc1ccc(C2(SCC(N)C(=O)O)c3ccccc3-c3ccccc32)cc1 (stereo not drawn)
inactive: [10] 101 % of control | [11] 98 % of control | [21] 95 % of control | [22] 93 % of control | dose: 300.0 mg/kg/injection, schedule: Q01DX009 (ip), vehicle: saline 98 % of control | [23] 102 % of control

COC(O)C(Cl)(Cl)Cl (stereo not drawn)
inactive: [1] 101 % of control | [21] 97 % of control | [12] 96 % of control | [2] 97 % of control | [22] 103 % of control | dose: 200.0 mg/kg/injection, schedule: Q04DX003 (ip), vehicle: saline 100 % of control | [3] 109 % of control | [23] 103 % of control | dose: 400.0 mg/kg/injection, schedule: Q04DX003 (ip), vehicle: saline 104 % of control

C=C(CSCC(=O)O)c1ccccc1
inactive: [16] 105 % of control | [17] 97 % of control | [18] 97 % of control

O=C1C=CC(=O)N1c1ccc(F)cc1
inactive: dose: 25.0 mg/kg/injection, schedule: Q04DX003 (ip), vehicle: saline with Tween-80 108 % of control

O=C(Nc1ccc(Cl)c([N+](=O)[O-])c1)Nc1nc(C(F)(F)F)cc(=O)[nH]1
inactive: [19] 98 % of control | [20] 95 % of control | dose: 400.0 mg/kg/injection, schedule: Q01DX009 (ip), vehicle: Klucel (hydroxypropylcellulose) (HPC) 93 % of control

O=C1c2c(c(-c3ccccc3)c3ccccc3c2-c2ccccc2)C(c2ccccc2)c2c1c(-c1ccccc1)c1ccccc1c2-c1ccccc1
inactive: dose: 100.0 mg/kg/injection, schedule: Q01DX001 (ip), vehicle: saline with Tween-80 111 % of control | dose: 200.0 mg/kg/injection, schedule: Q01DX001 (ip), vehicle: saline with Tween-80 97 % of control | dose: 400.0 mg/kg/injection, schedule: Q01DX001 (ip), vehicle: saline with Tween-80 90 % of control

N#C/C(N)=C(\C#N)N=CC=N/C(C#N)=C(/N)C#N
inactive: [13] 103 % of control | [14] 103 % of control | [15] 103 % of control | [9] 95 % of control

CC(=O)NC1CCC(S(=O)(=O)N2N=NC3CCCCC32)CC1 (stereo not drawn)
inactive: [4] 98 % of control | [5] 93 % of control | dose: 400.0 mg/kg/injection, schedule: Q01DX009 (ip), vehicle: saline with Tween-80 92 % of control
